Where “and” joins values, the source holds several entries; their conditions need not be identical. Equal entries are not always repeated. Inconclusive results and toxic doses are left out. How the source made its calls: active means survival T/C of 150% or more; inactive means T/C below 125% in these data.
Test system: P388 leukemia ip, CD2F1 mice, survival T/C
Test: NCI In Vivo Anticancer Drug Screen. Data for tumor model P388 Leukemia (intraperitoneal) in CD2F1 (CDF1) mice
Conditions: endpoint: median survival time, higher = longer survival
In short: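 Mice carrying the transplanted tumor received test compound or vehicle. Survival was recorded in each group, and the value is the treated-group measurement divided by that of the vehicle-treated control group.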

[1] = dose: 25.0 mg/kg/injection, schedule: Q01DX009 (ip), vehicle: saline with Tween-80
[2] = dose: 50.0 mg/kg/injection, schedule: Q01DX009 (ip), vehicle: saline with Tween-80
[3] = dose: 100.0 mg/kg/injection, schedule: Q01DX001 (ip), vehicle: saline with Tween-80
[4] = dose: 200.0 mg/kg/injection, schedule: Q01DX001 (ip), vehicle: saline with Tween-80
[5] = dose: 50.0 mg/kg/injection, schedule: Q01DX005 (ip), vehicle: saline with Tween-80
[6] = dose: 100.0 mg/kg/injection, schedule: Q01DX005 (ip), vehicle: saline with Tween-80
[7] = dose: 200.0 mg/kg/injection, schedule: Q01DX005 (ip), vehicle: saline with Tween-80
[8] = dose: 60.0 mg/kg/injection, schedule: Q01DX005 (ip), vehicle: Klucel + Tween-80
[9] = dose: 100.0 mg/kg/injection, schedule: Q01DX009 (ip), vehicle: saline with Tween-80
[10] = dose: 200.0 mg/kg/injection, schedule: Q01DX009 (ip), vehicle: saline with Tween-80
[11] = dose: 400.0 mg/kg/injection, schedule: Q01DX009 (ip), vehicle: saline with Tween-80
[12] = dose: 100.0 mg/kg/injection, schedule: Q04DX003 (ip), vehicle: saline with Tween-80
[13] = dose: 200.0 mg/kg/injection, schedule: Q04DX003 (ip), vehicle: saline with Tween-80
[14] = dose: 400.0 mg/kg/injection, schedule: Q04DX003 (ip), vehicle: saline with Tween-80
[15] = dose: 50.0 mg/kg/injection, schedule: Q01DX005 (ip), vehicle: Klucel (hydroxypropylcellulose) (HPC)
[16] = dose: 100.0 mg/kg/injection, schedule: Q01DX005 (ip), vehicle: Klucel (hydroxypropylcellulose) (HPC)
[17] = dose: 200.0 mg/kg/injection, schedule: Q01DX005 (ip), vehicle: Klucel (hydroxypropylcellulose) (HPC)
[18] = dose: 50.0 mg/kg/injection, schedule: Q01DX009 (ip), vehicle: Klucel (hydroxypropylcellulose) (HPC)
[19] = dose: 100.0 mg/kg/injection, schedule: Q01DX009 (ip), vehicle: Klucel (hydroxypropylcellulose) (HPC)
[20] = dose: 200.0 mg/kg/injection, schedule: Q01DX009 (ip), vehicle: Klucel (hydroxypropylcellulose) (HPC)

Measured: T/C

CCOC(=O)CC1(O)C=C(C)C(=O)C(C)=C1
inactive: dose: 3.13 mg/kg/injection, schedule: Q01DX009 (ip), vehicle: distilled water + Tween-80 100 % of control | dose: 6.25 mg/kg/injection, schedule: Q01DX009 (ip), vehicle: distilled water + Tween-80 109 % of control | dose: 12.5 mg/kg/injection, schedule: Q01DX009 (ip), vehicle: distilled water + Tween-80 103 % of control | dose: 25.0 mg/kg/injection, schedule: Q01DX009 (ip), vehicle: distilled water + Tween-80 98 % of control | dose: 50.0 mg/kg/injection, schedule: Q01DX009 (ip), vehicle: distilled water + Tween-80 107 % of control | dose: 100.0 mg/kg/injection, schedule: Q01DX009 (ip), vehicle: distilled water + Tween-80 99 % of control | dose: 200.0 mg/kg/injection, schedule: Q01DX009 (ip), vehicle: distilled water + Tween-80 112 % of control | dose: 400.0 mg/kg/injection, schedule: Q01DX009 (ip), vehicle: distilled water + Tween-80 108 % of control

CC(C)C12C=CC(C)(CC1)OO2 (stereo unspecified)
inactive: [1] 104 % of control | [2] 100 % of control and 102 % of control

O=c1c2ccccc2ncn1-c1ccc(O)c(CN(CCCl)CCCl)c1
inactive: [3] 101 % of control | [4] 97 % of control | dose: 400.0 mg/kg/injection, schedule: Q01DX001 (ip), vehicle: saline with Tween-80 93 % of control

OC1(c2cccc(Cl)c2)C2=NCCCN2c2ccccc21 (stereo unspecified)
inactive: dose: 6.25 mg/kg/injection, schedule: Q01DX009 (ip), vehicle: saline with Tween-80 95 % of control | dose: 12.5 mg/kg/injection, schedule: Q01DX009 (ip), vehicle: saline with Tween-80 91 % of control

NC(=S)n1nc(-c2ccccc2)c(N=Nc2ccccc2C(F)(F)F)c1-c1ccccc1
inactive: [5] 102 % of control | [6] 93 % of control | [7] 88 % of control

COc1ccc(-c2cnc3[nH]c(=O)[nH]c(=O)c3n2)cc1
inactive: dose: 100.0 mg/kg/injection, schedule: Q01DX001 (ip), vehicle: saline 100 % of control | dose: 200.0 mg/kg/injection, schedule: Q01DX001 (ip), vehicle: saline 97 % of control | dose: 400.0 mg/kg/injection, schedule: Q01DX001 (ip), vehicle: saline 90 % of control

O=C(O)c1cc(-c2cccc3ccccc23)nc2ccccc12
inactive: [5] 94 % of control | [6] 94 % of control | [7] 94 % of control

O=C(O)/C(Cl)=C(Cl)\C=N\c1ncn[nH]1
inactive: dose: 6.25 mg/kg/injection, schedule: Q01DX005 (ip), vehicle: Klucel (hydroxypropylcellulose) (HPC) 104 % of control | dose: 12.5 mg/kg/injection, schedule: Q01DX005 (ip), vehicle: Klucel (hydroxypropylcellulose) (HPC) 100 % of control | dose: 25.0 mg/kg/injection, schedule: Q01DX005 (ip), vehicle: Klucel (hydroxypropylcellulose) (HPC) 112 % of control

CCOc1c(N=Nc2ccccc2C)c(C)nn1C(=S)SC
inactive: [8] 95 % of control | dose: 120.0 mg/kg/injection, schedule: Q01DX005 (ip), vehicle: Klucel + Tween-80 92 % of control

CC(=O)Oc1cc2oc([O-])c[n+]2c2ccccc12
inactive: dose: 50.0 mg/kg/injection, schedule: Q01DX001 (ip), vehicle: saline with Tween-80 106 % of control | [8] 124 % of control | [3] 113 % of control and 124 % of control | [4] 106 % of control and 121 % of control

COc1ccc(CN2CCCNCC2)cc1
inactive: dose: 12.5 mg/kg/injection, schedule: Q01DX009 (ip), vehicle: water 93 % of control | dose: 25.0 mg/kg/injection, schedule: Q01DX009 (ip), vehicle: water 100 % of control | dose: 50.0 mg/kg/injection, schedule: Q01DX009 (ip), vehicle: water 102 % of control | dose: 100.0 mg/kg/injection, schedule: Q01DX009 (ip), vehicle: water 93 % of control

O=C1OC2(C=C1Br)CCC21C=C(Br)C(=O)O1 (stereo unspecified)
inactive: dose: 25.0 mg/kg/injection, schedule: Q01DX009 (ip), vehicle: Klucel (hydroxypropylcellulose) (HPC) 98 % of control

CCOC(=O)[C@]1(Br)CC[C@]1(Br)C(=O)OCC
inactive: [2] 106 % of control and 121 % of control | [9] 112 % of control and 114 % of control | [10] 117 % of control and 122 % of control | [11] 123 % of control

CC(=O)n1cc(C2CC(=O)OC3=C2CC(=O)C(C)(C)C3)c2ccccc21 (stereo unspecified)
inactive: [1] 100 % of control | [2] 103 % of control | [9] 110 % of control | [10] 113 % of control | [11] 119 % of control

COc1ccc2c(c1)c(CC(N)=O)c(C)n2C(=O)c1ccc(Cl)nc1
inactive: dose: 52.75 mg/kg/injection, schedule: Q01DX005 (ip), vehicle: saline with Tween-80 94 % of control | dose: 105.5 mg/kg/injection, schedule: Q01DX005 (ip), vehicle: saline with Tween-80 92 % of control

C[C@@H]1C[C@H]2[C@@H]3CCC4=CC(=O)C=C[C@]4(C)[C@@]3(F)[C@@H](O)C[C@]2(C)[C@@]1(O)C(=O)CO
inactive: dose: 25.0 mg/kg/injection, schedule: Q01DX009 (ip), vehicle: saline sonified 100 % of control | dose: 50.0 mg/kg/injection, schedule: Q01DX009 (ip), vehicle: saline sonified 90 % of control

CNCCCC12CC(c3ccccc31)c1ccccc12
inactive: [2] 94 % of control

CC(=O)CCC(=O)OC(C)(C)CN
inactive: [9] 100 % of control | [12] 100 % of control | [10] 100 % of control | [13] 100 % of control | [11] 104 % of control | [14] 104 % of control

c1ccc(C[N+]23CCC(CC2)CC3)cc1
inactive: dose: 3.13 mg/kg/injection, schedule: Q04DX003 (ip), vehicle: saline 95 % of control | dose: 6.25 mg/kg/injection, schedule: Q04DX003 (ip), vehicle: saline 95 % of control | dose: 12.5 mg/kg/injection, schedule: Q04DX003 (ip), vehicle: saline 100 % of control

CCOC(=O)c1ccc(NC(CCSc2ccccc2)=NC(C)(C)C)cc1
inactive: [2] 103 % of control | [9] 107 % of control | [10] 94 % of control

CC1CCC23COC(=O)C2=CCCC3C12CC(c1ccoc1)OC2=O (stereo unspecified)
inactive: dose: 0.03 mg/kg/injection, schedule: Q01DX009 (ip), vehicle: saline 107 % of control | dose: 0.06 mg/kg/injection, schedule: Q01DX009 (ip), vehicle: saline 104 % of control | dose: 0.12 mg/kg/injection, schedule: Q01DX009 (ip), vehicle: saline 107 % of control | dose: 0.24 mg/kg/injection, schedule: Q01DX009 (ip), vehicle: saline 103 % of control | dose: 0.5 mg/kg/injection, schedule: Q01DX009 (ip), vehicle: Klucel (hydroxypropylcellulose) (HPC) 96 % of control | dose: 1.0 mg/kg/injection, schedule: Q01DX009 (ip), vehicle: Klucel (hydroxypropylcellulose) (HPC) 96 % of control | dose: 2.0 mg/kg/injection, schedule: Q01DX009 (ip), vehicle: Klucel (hydroxypropylcellulose) (HPC) 98 % of control

COC(=O)C1=C(C(=O)OC)P2(c3ccccc3)(c3ccccc3)N(C)C(=S)N2C1(c1ccccc1)c1ccccc1
inactive: [15] 103 % of control | [16] 105 % of control | [17] 90 % of control

O=C(O)CS(=O)(=O)N1CCOCC1
inactive: [15] 102 % of control | [16] 94 % of control

CCCCN(CCCC)CCNc1ccc(C)c2sc3ccc([N+](=O)[O-])cc3c(=O)c12
inactive: [15] 100 % of control | [16] 99 % of control | [17] 100 % of control

CC(C)c1c2ccccc2nn1-c1ccccc1
inactive: [12] 97 % of control | [13] 89 % of control | [14] 91 % of control

COc1ccc(OC)c(CCN2C(=O)c3cccc4c([N+](=O)[O-])ccc(c34)C2=O)c1
inactive: [18] 98 % of control | [19] 106 % of control | [20] 113 % of control

CCCCC(=O)/C=C/c1ccc(Cl)c(Cl)c1
inactive: [18] 98 % of control | [19] 90 % of control | [20] 95 % of control

C[N+](C)(C)c1ncnc2c1ncn2C1CC(O)C(CO)O1 (stereo unspecified)
inactive: dose: 50.0 mg/kg/injection, schedule: Q01DX005 (ip), vehicle: saline 95 % of control | dose: 100.0 mg/kg/injection, schedule: Q01DX005 (ip), vehicle: saline 98 % of control | dose: 200.0 mg/kg/injection, schedule: Q01DX005 (ip), vehicle: saline 101 % of control

From PubChem BioAssay AID330 (DTP/NCI, 2004)
